Measured values taken from publication PMC10545747, “Development of cyclopeptide inhibitors of cGAS targeting protein-DNA interaction and phase separation” (Nature Communications, 2023).
Several values for one entry are separate records, joined by “and”; a condition that tells them apart may be missing. Identical values can stand only once. Square brackets hold non-standard residues; d marks the D form. Peptide text beside a SMILES is read from it.

How the values were obtained:
[1] = system: HSV-1-infected THP1 cells; experiment: qPCR of IFNB1/CXCL10/IL6 mRNA in THP1 cells stimulated by HSV-1 infection; format: cell-based, human
HSV-1 in THP1 cells = experiment: HSV-1(UL5) mRNA by qPCR (virus infection of cells); format: cell-based, herpes simplex virus-1; set-up: key to HSV-1(UL5) mRNA, qPCR, Fig. 5d / HSV-1(UL5) mRNA (Fig. S8e): relative mRNA level, target CT normalized to GAPDH CT; conditions: for HSV-1(UL5) mRNA, qPCR, Fig. 5d: XQ2 10 μM
Description: The indicated cells were stimulated with either ISD (Sangon Biotech), HSV-1 (Provided by Dr. Zhengfan Jiang), HSV60mer (Sangon Biotech), SATE-cddA[70], 2’3’-cGAMP (Invivogen, Cat# tlrl-nacga23-1), ADU-S100 (MedChemExpress, Cat# HY-12885A) or Poly(I:C) (Invivogen, Cat# tlrl-pic) after XQ2 or XQ2B treatment. Total RNA was isolated from indicated cells that incubated with the drugs for indicated time or mice tissues by using NucleoZOL reagent (MACHEREY-NAGEL) according to the manufacturer’s instructions. The quantifications of mRNA levels were carried out by real-time PCR using a PerfectStart® Uni RT&qPCR Kit (TransGen Biotech) on the QuantStudio 5 qPCR machine (Applied Biosystems). Samples were carried out in triplicate and the target CT values were normalized to GAPDH CT values. Primers of qPCR used in this study can be found in Supplementary Table S2.

L929 cells = experiment: ISD-induced autophagy, LC3-II immunoblotting; format: cell-based, mouse; conditions: for LC3-II relative gray ratio (normalized to GAPDH), Fig. S3a: ISD +
Description: Total cell lysates were prepared in RIPA lysis buffer (Beyotime Biotechnology) supplemented with 1 mM PMSF and 1× protease inhibitor cocktail (Yeasen), and nuclear protein was extracted by nuclear protein extraction kit (Solarbio) in accordance with the manufacturer’s instructions. The samples were separated by SDS-PAGE and transferred to the PVDF membrane (Millipore). The membranes were incubated with the indicated primary antibodies at 4 °C overnight and then incubated with an HRP-conjugated anti-rabbit IgG antibody (Cell Signaling, Cat# 7074, 1:5000) or anti-mouse IgG antibody (Cell Signaling, Cat# 7076, 1:5000) at room temperature for 1 h. The signal was visualized by using the NcmECL Ultra kit (New Cell & Molecular Biotech) and then was exposed by using MiniChemi (SageCreation).
Supplementary Fig. 3. […] (a) L929 cells were pretreated for
4 h with DMSO or the indicated doses of XQ2, followed by stimulation with dsDNA for 4 h, and then cell lysates were
(b) Jurkat cells were exposed to the indicated doses of XQ2, and then stimulated with
Data are representative of three independent experiments in (a, b). (Data are presented as mean ± SD, n = 3 independent
provided as a Source Data file.
(1 picture or pasted object on this page, not shown here)

SMILES: CC(C)C[C@@H]1NC(=O)[C@H](CCCNC(=N)N)NC(=O)[C@H](C(C)C)NC(=O)[C@@H]2CCCN2C(=O)[C@@H](Cc2ccccc2)NC(=O)[C@H](CC(C)C)NC(=O)[C@H](CCCNC(=N)N)NC(=O)[C@H](C(C)C)NC(=O)[C@H](C)NC(=O)[C@@H](Cc2ccccc2)NC1=O [XQ2, Cyclo (LfAVRLfPVR)] (cyclo(L[dF]AVRL[dF]PVR))
- CXCL10 mRNA (Fig. S2b) ([1]; HSV-1, XQ2 0.31 μM): 13697.8 and 18057.7 and 19972.6
- IFNB1 mRNA (Fig. S2b) ([1]; HSV-1, XQ2 0.31 μM): 103.029 and 97.656 and 104.314
- IL6 mRNA (Fig. S2b) ([1]; HSV-1, XQ2 0.31 μM): 94.9854 and 106.129 and 109.338
- CXCL10 mRNA (Fig. S2b) ([1]; HSV-1, XQ2 0.63 μM): 14561.5 and 17791.3 and 14971.8
- IFNB1 mRNA (Fig. S2b) ([1]; HSV-1, XQ2 0.63 μM): 91.2373 and 106.205 and 112.809
- IL6 mRNA (Fig. S2b) ([1]; HSV-1, XQ2 0.63 μM): 98.3879 and 100.916 and 99.3832
- CXCL10 mRNA (Fig. S2b) ([1]; HSV-1, XQ2 1.25 μM): 13878.7 and 14634.4 and 14561.7
- IFNB1 mRNA (Fig. S2b) ([1]; HSV-1, XQ2 1.25 μM): 97.5861 and 86.027 and 97.3512
- IL6 mRNA (Fig. S2b) ([1]; HSV-1, XQ2 1.25 μM): 83.7674 and 88.7511 and 90.6215
- CXCL10 mRNA (Fig. S2b) ([1]; HSV-1, XQ2 2.5 μM): 11116.4 and 12643.3 and 12467.1
- IFNB1 mRNA (Fig. S2b) ([1]; HSV-1, XQ2 2.5 μM): 73.1655 and 85.1476 and 97.1694
- IL6 mRNA (Fig. S2b) ([1]; HSV-1, XQ2 2.5 μM): 59.5539 and 58.6936 and 59.7795
- CXCL10 mRNA (Fig. S2b) ([1]; HSV-1, XQ2 5 μM): 4443.66 and 5989.75 and 4916.38
- IFNB1 mRNA (Fig. S2b) ([1]; HSV-1, XQ2 5 μM): 58.3528 and 60.5599 and 78.4822
- IL6 mRNA (Fig. S2b) ([1]; HSV-1, XQ2 5 μM): 37.2474 and 41.0154 and 36.4161
- CXCL10 mRNA (Fig. S2b) ([1]; HSV-1, XQ2 10 μM): 610.463 and 931.698 and 780.881
- IFNB1 mRNA (Fig. S2b) ([1]; HSV-1, XQ2 10 μM): 20.0242 and 25.5972 and 33.1577
- CXCL10 mRNA (Fig. S2b) ([1]; Mock, XQ2 0.31 μM): 0.6255 and 0.7855 and 0.8542
- IFNB1 mRNA (Fig. S2b) ([1]; Mock, XQ2 0.31 μM): 0.7527 and 0.6452 and 0.8722
- IL6 mRNA (Fig. S2b) ([1]; Mock, XQ2 0.31 μM): 0.9875 and 1.125 and 1.458
- CXCL10 mRNA (Fig. S2b) ([1]; Mock, XQ2 0.63 μM): 0.4588 and 0.432 and 0.4044
- IFNB1 mRNA (Fig. S2b) ([1]; Mock, XQ2 0.63 μM): 0.713 and 0.5919 and 0.8053
- IL6 mRNA (Fig. S2b) ([1]; Mock, XQ2 0.63 μM): 1.48 and 1.078 and 1.222
- CXCL10 mRNA (Fig. S2b) ([1]; Mock, XQ2 1.25 μM): 1.308 and 1.359 and 1.615
- IFNB1 mRNA (Fig. S2b) ([1]; Mock, XQ2 1.25 μM): 0.9026 and 1.107 and 1.382
- CXCL10 mRNA (Fig. S2b) ([1]; Mock, XQ2 2.5 μM): 3.137 and 2.991 and 2.833
- IFNB1 mRNA (Fig. S2b) ([1]; Mock, XQ2 2.5 μM): 1.426 and 1.751 and 1.799
- IL6 mRNA (Fig. S2b) ([1]; Mock, XQ2 2.5 μM): 2.387 and 2.459 and 3.439
- CXCL10 mRNA (Fig. S2b) ([1]; Mock, XQ2 5 μM): 1.923 and 2.134 and 2.246
- IFNB1 mRNA (Fig. S2b) ([1]; Mock, XQ2 5 μM): 1.17 and 1.093 and 1.0788
- CXCL10 mRNA (Fig. S2b) ([1]; Mock, XQ2 10 μM): 4.593 and 4.941 and 4.3739
- IFNB1 mRNA (Fig. S2b) ([1]; Mock, XQ2 10 μM): 1.523 and 2.285 and 2.284
- IL6 mRNA (Fig. S2b) ([1]; Mock, XQ2 10 μM): 4.656 and 4.111 and 3.925
- HSV-1-induced IFNB1, CXCL10, IL6 expression ([1]; THP1): inhibited the expression level of IFNΒ1 and CXCL10, as well as IL6
- IFNB1 mRNA, qPCR, Fig. 2b ([1]; THP1, HSV-1, 10 μM): 17.701 and 20.2819 and 20.0106
- HSV-1 infection of THP1 cells, HSV1(UL5) mRNA (HSV-1 in THP1 cells; 10 μM): substantially facilitated HSV-1 infection of THP1 cells
- HSV-1(UL5) mRNA, qPCR, Fig. 5d (HSV-1 in THP1 cells; HSV-1(1×104)24h): 1.256 and 1.311 and 1.284
- HSV-1(UL5) mRNA, qPCR, Fig. 5d (HSV-1 in THP1 cells; HSV-1(1×104)48h): 9.927 and 7.927 and 10.0304
- HSV-1(UL5) mRNA, qPCR, Fig. 5d (HSV-1 in THP1 cells; HSV-1(2×104)24h): 4.976 and 4.739 and 4.656
- HSV-1(UL5) mRNA, qPCR, Fig. 5d (HSV-1 in THP1 cells; HSV-1(2×104)48h): 18.9511 and 21.7278 and 21.8028
- ISD-induced autophagy, LC3-II formation (L929 cells): significantly reduced ISD-induced autophagy
- LC3-II relative gray ratio (normalized to GAPDH), Fig. S3a (L929 cells; XQ2 5 μM): 1.62 and 1.737 and 1.498
- LC3-II relative gray ratio (normalized to GAPDH), Fig. S3a (L929 cells; XQ2 10 μM): 1.275 and 1.336 and 1.295
